Reference: patent US10781181B2, “N-((het) arylmethyl)-heteroaryl-carboxamides compounds as plasma kallikrein inhibitors” (Kalvista Pharmaceuticals Limited, priority 2014, dated 2020)

Columns and labels:
Type in all cases: biochemical
Human plasma kallikrein = Human plasma kallikrein (Homo sapiens (Human), UniProt P03952); experiment: Determination of the IC50 for plasma kallikrein; details: read-out: IC50 (human PKal)
Procedure: Determination of the IC50 for Plasma Kallikrein
(§1) Human plasma kallikrein (Protogen) was incubated at 25° C. with the fluorogenic substrate H-DPro-Phe-Arg-AFC and various concentrations of the test compound. Residual enzyme activity (initial rate of reaction) was determined by measuring the change in […] at 410 nm and the IC50 value for the test compound was determined.

Human KLK1 = Human KLK1 (Homo sapiens (Human), UniProt P06870); experiment: Determination of the IC50 for KLK1; details: human KLK1, 25° C., substrate H-DVal-Leu-Arg-AFC
Procedure: Determination of the IC50 for KLK1
as §1, with “KLK1 (Callbiochem)” for “plasma kallikrein (Protogen)”, “H-DVal-Leu-Arg-AFC” for “H-DPro-Phe-Arg-AFC”

Human FXIa = Human FXIa (Homo sapiens (Human), UniProt P03951); experiment: Determination of the % inhibition for FXIa; details: 40 μM of the test compound, human FXIa, 25° C.; read-out: % Inhibition @ 40 μM (human FXIa)
Procedure: Determination of the % Inhibition for FXIa
Human FXIa (Enzyme Research Laboratories) was incubated at 25° C. with the fluorogenic substrate Z-Gly-Pro-Arg-AFC and 40 μM of the test compound. Residual enzyme activity (initial rate of reaction) was determined by measuring the change in […].

Chain of Human FXIa (P03951 388-625 limits assumed): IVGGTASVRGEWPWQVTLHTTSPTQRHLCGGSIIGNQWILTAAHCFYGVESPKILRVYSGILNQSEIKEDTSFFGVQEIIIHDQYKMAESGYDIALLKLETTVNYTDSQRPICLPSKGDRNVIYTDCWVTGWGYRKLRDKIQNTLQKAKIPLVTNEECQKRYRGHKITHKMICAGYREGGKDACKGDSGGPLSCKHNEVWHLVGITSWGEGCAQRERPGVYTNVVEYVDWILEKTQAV
Chain of Human FXIa (P03951 19-387 partner limits assumed): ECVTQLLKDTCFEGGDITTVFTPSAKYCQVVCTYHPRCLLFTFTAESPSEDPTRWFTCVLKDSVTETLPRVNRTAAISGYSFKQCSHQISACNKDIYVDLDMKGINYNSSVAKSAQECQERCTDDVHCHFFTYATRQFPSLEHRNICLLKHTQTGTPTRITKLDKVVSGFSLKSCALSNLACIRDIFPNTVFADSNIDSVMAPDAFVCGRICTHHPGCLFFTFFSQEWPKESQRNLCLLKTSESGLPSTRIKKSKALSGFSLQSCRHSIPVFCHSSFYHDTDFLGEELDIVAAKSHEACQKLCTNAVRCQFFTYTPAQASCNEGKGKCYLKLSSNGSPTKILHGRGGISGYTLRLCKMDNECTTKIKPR
Chain of Human KLK1 (P06870 25-262): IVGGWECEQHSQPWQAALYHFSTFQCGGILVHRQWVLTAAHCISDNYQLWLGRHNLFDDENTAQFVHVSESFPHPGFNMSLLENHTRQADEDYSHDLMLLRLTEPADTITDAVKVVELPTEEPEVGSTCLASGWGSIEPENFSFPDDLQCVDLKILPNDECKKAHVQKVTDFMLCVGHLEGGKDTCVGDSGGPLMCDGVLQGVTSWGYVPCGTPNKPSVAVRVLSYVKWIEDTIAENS
Chain of Human plasma kallikrein (P03952 391-638): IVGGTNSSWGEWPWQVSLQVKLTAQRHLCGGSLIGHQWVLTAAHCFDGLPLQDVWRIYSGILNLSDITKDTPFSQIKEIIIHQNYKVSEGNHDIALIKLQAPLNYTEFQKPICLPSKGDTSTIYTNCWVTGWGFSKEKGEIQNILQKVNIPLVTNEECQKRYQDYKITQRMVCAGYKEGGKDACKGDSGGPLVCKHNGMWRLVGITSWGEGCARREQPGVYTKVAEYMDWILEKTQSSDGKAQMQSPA
Chain of Human plasma kallikrein (P03952 20-390 partner): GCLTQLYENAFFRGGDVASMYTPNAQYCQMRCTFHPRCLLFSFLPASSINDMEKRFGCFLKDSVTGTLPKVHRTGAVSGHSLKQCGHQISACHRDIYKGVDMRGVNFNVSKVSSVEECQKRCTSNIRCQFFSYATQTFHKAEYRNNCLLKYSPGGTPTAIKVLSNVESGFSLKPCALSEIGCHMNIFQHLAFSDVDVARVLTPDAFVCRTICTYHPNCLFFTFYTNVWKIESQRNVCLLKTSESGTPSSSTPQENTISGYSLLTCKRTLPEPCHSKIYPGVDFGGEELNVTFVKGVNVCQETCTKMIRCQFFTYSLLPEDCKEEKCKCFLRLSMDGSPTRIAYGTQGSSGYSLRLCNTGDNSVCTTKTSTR

Structure (SMILES)	IC50 (Human plasma kallikrein)	IC50 (Human KLK1)	inhibition at 40 µM (Human FXIa)
CC(CNC(=O)c1cn(Cc2ccc(Cn3ccccc3=O)cc2)nc1N)Oc1cccc(Cl)c1 (racemic) [Example 118, 3-amino-N-[(2R/S)-2-(3-chlorophenoxy)propyl]-1-({4-[(2-oxopyridin-1-yl)methyl]phenyl}methyl)pyrazole-4-carboxamide]	0.0133 µM	> 40 µM	–
Nc1nn(Cc2ccc(Cn3ccccc3=O)cc2)cc1C(=O)NCCOc1cccc(Cl)c1 [Example 1]	0.0029 µM	> 10 µM	2%
Nc1nn(Cc2ccc(Cn3ccccc3=O)cc2)cc1C(=O)NCC(=O)Nc1cccc(Cl)c1 [Example 2]	0.0602 µM	> 10 µM	0%
Nc1nn(Cc2ccc(Cn3ccccc3=O)cc2)cc1C(=O)NCC(=O)Nc1ccccc1Cl [Example 3, 2-{[3-amino-1-({4-[(2-oxopyridin-1-yl)methyl]phenyl}methyl)pyrazol-4-yl]formamido}-N-(2-chlorophenyl)acetamide]	5.53 µM	> 10 µM	0%
Nc1nn(Cc2ccc(Cn3ccccc3=O)cc2)cc1C(=O)NCC(=O)Nc1ccc(Cl)cc1 [Example 4, 2-{[3-amino-1-({4-[(2-oxopyridin-1-yl)methyl]phenyl}methyl)pyrazol-4-yl]formamido}-N-(4-chlorophenyl)acetamide]	> 10 µM	> 10 µM	–
COCc1nn(Cc2ccc(Cn3ccccc3=O)cc2)cc1C(=O)NCCOc1cc(Cl)cc(OC)c1 [Example 11, N-[2-(3-chloro-5-methoxyphenoxy)ethyl]-3-(methoxymethyl)-1-({4-[(2-oxopyridin-1-yl)methyl]phenyl}methyl)pyrazole-4-carboxamide]	> 10 µM	> 10 µM	–
N#Cc1nn(Cc2ccc(Cn3ccccc3=O)cc2)cc1C(=O)NCCOc1cccc(Cl)c1 [Example 38, N-[2-(3-chlorophenoxy)ethyl]-3-cyano-1-({4-[(2-oxopyridin-1-yl)methyl]phenyl}methyl)pyrazole-4-carboxamide]	0.0065 µM	> 40 µM	–
Cc1nn(Cc2ccc(Cn3ccccc3=O)cc2)cc1C(=O)NCCOc1cccc(Cl)c1 [Example 39, N-[2-(3-chlorophenoxy)ethyl]-3-methyl-1-({4-[(2-oxopyridin-1-yl)methyl]phenyl}methyl)pyrazole-4-carboxamide]	0.0163 µM	> 40 µM	–
Cc1nc(C(=O)NCCOc2cccc(Cl)c2)cn1Cc1ccc(Cn2ccccc2=O)cc1 [Example 43, N-[2-(3-chlorophenoxy)ethyl]-2-methyl-1-({4-[(2-oxopyridin-1-yl)methyl]phenyl}methyl)imidazole-4-carboxamide]	0.077 µM	> 10 µM	–
Nc1c(C(=O)NCCOc2cccc(Cl)c2)cnn1Cc1ccc2[nH]ncc2c1 [Example 44, 5-amino-N-[2-(3-chlorophenoxy)ethyl]-1-(1H-indazol-5-ylmethyl)pyrazole-4-carboxamide]	> 10 µM	> 40 µM	–
Nc1c(C(=O)NCCOc2cccc(Cl)c2)cnn1Cc1ccc(C(=O)N2CCCC2)cc1 [Example 45, 5-amino-N-[2-(3-chlorophenoxy)ethyl]-1-({4-[(pyrrolidin-1-yl)carbonyl]phenyl}methyl)pyrazole-4-carboxamide]	6.25 µM	> 40 µM	–
COCc1nn(Cc2ccc(Cn3ccccc3=O)cc2)cc1C(=O)NCCOc1cc(Cl)cnn1 [Example 46, N-{2-[(5-chloropyridazin-3-yl)oxy]ethyl}-3-(methoxymethyl)-1-({4-[(2-oxopyridin-1-yl)methyl]phenyl}methyl)pyrazole-4-carboxamide]	> 10 µM	> 10 µM	–
CN(C)C(=O)c1ccc(Cn2cc(C(=O)NCCOc3cccc(Cl)c3)c(N)n2)cc1 [Example 59, 3-amino-N-[2-(3-chlorophenoxy)ethyl]-1-{[4-(dimethylcarbamoyl)phenyl]methyl}pyrazole-4-carboxamide]	> 10 µM	> 40 µM	–
Nc1nn(Cc2ccc(C(=O)N3CCCCC3)cc2)cc1C(=O)NCCOc1cccc(Cl)c1 [Example 60, 3-amino-N-[2-(3-chlorophenoxy)ethyl]-1-({4-[(piperidin-1-yl)carbonyl]phenyl}methyl)pyrazole-4-carboxamide]	> 10 µM	> 40 µM	–
Nc1nn(Cc2cccc(C(=O)O)c2)cc1C(=O)NCCOc1cccc(Cl)c1 [Example 63, 3-[(3-amino-4-{[2-(3-chlorophenoxy)ethyl]carbamoyl}pyrazol-1-yl)methyl]benzoic acid]	> 10 µM	> 40 µM	–
CNC(=O)c1cccc(Cn2cc(C(=O)NCCOc3cccc(Cl)c3)c(N)n2)c1 [Example 64, 3-amino-N-[2-(3-chlorophenoxy)ethyl]-1-{[3-(methylcarbamoyl)phenyl]methyl}pyrazole-4-carboxamide]	> 10 µM	> 40 µM	–
CN(C)C(=O)c1cccc(Cn2cc(C(=O)NCCOc3cccc(Cl)c3)c(N)n2)c1 [Example 65, 3-amino-N-[2-(3-chlorophenoxy)ethyl]-1-{[3-(dimethylcarbamoyl)phenyl]methyl}pyrazole-4-carboxamide]	> 10 µM	> 40 µM	–
CN(CC(=O)O)c1cc(Cn2cc(C(=O)NCCOc3cccc(Cl)c3)c(N)n2)ccn1 [Example 67, ({4-[(3-amino-4-{[2-(3-chlorophenoxy)ethyl]carbamoyl}pyrazol-1-yl)methyl]pyridin-2-yl}(methyl)amino)acetic acid]	> 10 µM	> 40 µM	–
Nc1nn(Cc2cccc(Cl)n2)cc1C(=O)NCCOc1cccc(Cl)c1 [Example 81, 3-amino-N-[2-(3-chlorophenoxy)ethyl]-1-[(6-chloropyridin-2-yl)methyl]pyrazole-4-carboxamide]	> 10 µM	> 40 µM	–
Nc1nn(Cc2ccnc(N3CCCC3=O)c2)cc1C(=O)NCCOc1cccc(Cl)c1 [Example 94, 3-amino-N-[2-(3-chlorophenoxy)ethyl]-1-{[2-(2-oxopyrrolidin-1-yl)pyridin-4-yl]methyl}pyrazole-4-carboxamide]	3.14 µM	> 40 µM	–
Cc1nc2cc(Cn3cc(C(=O)NCCOc4cccc(Cl)c4)c(N)n3)ccc2n1C [Example 95, 3-amino-N-[2-(3-chlorophenoxy)ethyl]-1-[(1,2-dimethyl-1,3-benzodiazol-5-yl)methyl]pyrazole-4-carboxamide]	1.9 µM	> 40 µM	–
Nc1nn(Cc2ccc(N3CCCC3=O)nc2)cc1C(=O)NCCOc1cccc(Cl)c1 [Example 96, 3-amino-N-[2-(3-chlorophenoxy)ethyl]-1-{[6-(2-oxopyrrolidin-1-yl)pyridin-3-yl]methyl}pyrazole-4-carboxamide]	2.23 µM	> 40 µM	–
Nc1nn(Cc2ccc(-c3cccnc3)nc2)cc1C(=O)NCCOc1cccc(Cl)c1 [Example 97, 3-amino-N-[2-(3-chlorophenoxy)ethyl]-1-{[6-(pyridin-3-yl)pyridin-3-yl]methyl}pyrazole-4-carboxamide]	1.13 µM	> 40 µM	–
COc1cc(Cn2cc(C(=O)NCCOc3cccc(Cl)c3)c(N)n2)ccc1Cn1ccccc1=O [Example 98, 3-amino-N-[2-(3-chlorophenoxy)ethyl]-1-({3-methoxy-4-[(2-oxopyridin-1-yl)methyl]phenyl}methyl)pyrazole-4-carboxamide]	0.0094 µM	> 40 µM	–
Nc1nn(Cc2ccc(Cn3c(F)cccc3=O)cc2)cc1C(=O)NCCOc1cccc(Cl)c1 [Example 99, 3-amino-N-[2-(3-chlorophenoxy)ethyl]-1-({4-[(2-fluoro-6-oxopyridin-1-yl)methyl]phenyl}methyl)pyrazole-4-carboxamide]	2.07 µM	> 40 µM	–
Nc1nn(Cc2ccc(Cn3cc(F)ccc3=O)cc2)cc1C(=O)NCCOc1cccc(Cl)c1 [Example 100, 3-amino-N-[2-(3-chlorophenoxy)ethyl]-1-({4-[(5-fluoro-2-oxopyridin-1-yl)methyl]phenyl}methyl)pyrazole-4-carboxamide]	0.0062 µM	> 40 µM	–
Nc1nn(Cc2ccc(Cn3ccccc3=O)cc2F)cc1C(=O)NCCOc1cccc(Cl)c1 [Example 101, 3-amino-N-[2-(3-chlorophenoxy)ethyl]-1-({2-fluoro-4-[(2-oxopyridin-1-yl)methyl]phenyl}methyl)pyrazole-4-carboxamide]	0.0076 µM	> 40 µM	–
Nc1nn(Cc2ccc(Cn3ccccc3=O)cn2)cc1C(=O)NCCOc1cccc(Cl)c1 [Example 102, 3-amino-N-[2-(3-chlorophenoxy)ethyl]-1-({5-[(2-oxopyridin-1-yl)methyl]pyridin-2-yl}methyl)pyrazole-4-carboxamide]	0.0721 µM	> 40 µM	–
Cc1nn(Cc2ccc(Cn3ccccc3=O)cc2)c(C)c1C(=O)NCCOc1cccc(Cl)c1 [Example 103, N-[2-(3-chlorophenoxy)ethyl]-3,5-dimethyl-1-({4-[(2-oxopyridin-1-yl)methyl]phenyl}methyl)pyrazole-4-carboxamide]	> 10 µM	> 40 µM	–
COCc1nn(Cc2ccc(Cn3ccc(C)cc3=O)cc2)cc1C(=O)NCCOc1cccc(Cl)c1 [Example 104, N-[2-(3-chlorophenoxy)ethyl]-3-(methoxymethyl)-1-({4-[(4-methyl-2-oxopyridin-1-yl)methyl]phenyl}methyl)pyrazole-4-carboxamide]	0.413 µM	> 40 µM	–
